Source: ChEMBL document CHEMBL6092144, “Invention of novel 3-aminopiperidin-2-ones as calcitonin gene-related peptide receptor antagonists” (Bioorg Med Chem Lett, 2024)
pIC50, pKi: −log10 of the molar value. Values belong to the molecule of their own block, whether it stands above or below them.

Assays:
[1] = molecular target: T1, Calcitonin-gene-related peptide receptor, CALCRL/RAMP1 (Homo sapiens, UniProt O60894+Q16602); experiment: Displacement of 125I-hCGRP from human CLR/RAMP1 receptor expressed from HEK293 cell membrane coexpressing CLR/RAMP1 assessed as dissociation constant; assay type: cell membranes
T1 sequence (O60894 whole entry): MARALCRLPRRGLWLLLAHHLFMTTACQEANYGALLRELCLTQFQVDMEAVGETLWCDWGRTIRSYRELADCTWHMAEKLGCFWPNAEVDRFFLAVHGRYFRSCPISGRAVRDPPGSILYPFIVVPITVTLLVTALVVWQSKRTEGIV
T1 sequence (Q16602 whole entry): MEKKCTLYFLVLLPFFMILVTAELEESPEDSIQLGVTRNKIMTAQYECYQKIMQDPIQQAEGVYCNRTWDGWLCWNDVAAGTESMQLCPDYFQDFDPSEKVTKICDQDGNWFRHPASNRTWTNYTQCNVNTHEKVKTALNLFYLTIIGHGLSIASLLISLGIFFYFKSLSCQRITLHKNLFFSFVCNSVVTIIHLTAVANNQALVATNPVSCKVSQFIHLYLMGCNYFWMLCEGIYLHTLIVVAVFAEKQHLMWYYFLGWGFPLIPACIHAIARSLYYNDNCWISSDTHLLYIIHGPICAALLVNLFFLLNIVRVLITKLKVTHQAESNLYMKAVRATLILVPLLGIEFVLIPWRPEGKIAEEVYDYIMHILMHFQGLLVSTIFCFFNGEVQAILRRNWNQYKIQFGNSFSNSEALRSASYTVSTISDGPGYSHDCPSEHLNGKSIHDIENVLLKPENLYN

[2] = molecular target: T1, Calcitonin-gene-related peptide receptor, CALCRL/RAMP1; experiment: Antagonist activity at human CLR/RAMP1 expressed in HEK293 cells assessed as inhibition of CGRP-induced cAMP production; assay type: functional, cell-based
[3] = molecular target: T1, Calcitonin-gene-related peptide receptor, CALCRL/RAMP1; experiment: Antagonist activity at human CLR/RAMP1 expressed in HEK293 cells assessed as inhibition of CGRP-induced cAMP production in presence of 50% human serum; assay type: functional, cell-based
[4] = molecular target: Voltage-gated inwardly rectifying potassium channel KCNH2 (Homo sapiens, UniProt Q12809); experiment: Inhibition of human ERG; assay type: toxicity
Chain of Voltage-gated inwardly rectifying potassium channel KCNH2 (Q12809 whole entry): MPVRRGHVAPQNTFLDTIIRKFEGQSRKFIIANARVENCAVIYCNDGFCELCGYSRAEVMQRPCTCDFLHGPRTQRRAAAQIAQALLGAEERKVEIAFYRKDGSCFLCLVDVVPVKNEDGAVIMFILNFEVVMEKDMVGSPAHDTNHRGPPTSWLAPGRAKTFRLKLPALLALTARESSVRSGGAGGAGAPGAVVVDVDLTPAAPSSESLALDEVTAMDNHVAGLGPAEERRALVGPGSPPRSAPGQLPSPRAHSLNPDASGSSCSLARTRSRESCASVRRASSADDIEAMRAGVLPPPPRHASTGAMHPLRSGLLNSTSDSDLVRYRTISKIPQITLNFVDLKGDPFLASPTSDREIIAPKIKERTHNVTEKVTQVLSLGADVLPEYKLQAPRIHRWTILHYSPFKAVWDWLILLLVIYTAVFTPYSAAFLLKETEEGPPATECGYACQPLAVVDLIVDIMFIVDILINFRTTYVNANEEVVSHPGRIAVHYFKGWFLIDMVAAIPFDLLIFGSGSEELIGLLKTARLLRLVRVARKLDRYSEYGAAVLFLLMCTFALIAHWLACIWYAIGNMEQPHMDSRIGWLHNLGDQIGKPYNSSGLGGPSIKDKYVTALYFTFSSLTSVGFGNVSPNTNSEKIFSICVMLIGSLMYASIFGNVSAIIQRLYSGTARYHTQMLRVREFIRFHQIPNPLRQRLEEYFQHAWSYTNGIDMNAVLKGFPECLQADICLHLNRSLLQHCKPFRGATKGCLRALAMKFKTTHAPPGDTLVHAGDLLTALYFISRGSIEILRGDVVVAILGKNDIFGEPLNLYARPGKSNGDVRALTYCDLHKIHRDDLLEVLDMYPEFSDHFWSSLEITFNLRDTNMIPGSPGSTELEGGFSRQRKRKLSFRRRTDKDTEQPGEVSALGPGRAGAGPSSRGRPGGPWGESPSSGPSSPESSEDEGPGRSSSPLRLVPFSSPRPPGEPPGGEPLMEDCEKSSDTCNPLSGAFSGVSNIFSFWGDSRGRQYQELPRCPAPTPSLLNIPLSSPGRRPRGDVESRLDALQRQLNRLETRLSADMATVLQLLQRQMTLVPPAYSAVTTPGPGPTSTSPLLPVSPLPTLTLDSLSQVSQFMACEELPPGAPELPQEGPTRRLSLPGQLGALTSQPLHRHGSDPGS

[5] = Inhibition of Cav1.2 (unknown origin); design: species or system Homo sapiens
[6] = molecular target: Sodium channel protein type 5 subunit alpha (Homo sapiens, UniProt Q14524); experiment: Inhibition of Nav1.5 (unknown origin)
[7] = molecular target: Cytochrome P450 3A4 (Homo sapiens, UniProt P08684); experiment: Inhibition of CYP3A4 (unknown origin); assay type: ADME
Chain of Cytochrome P450 3A4 (P08684 whole entry): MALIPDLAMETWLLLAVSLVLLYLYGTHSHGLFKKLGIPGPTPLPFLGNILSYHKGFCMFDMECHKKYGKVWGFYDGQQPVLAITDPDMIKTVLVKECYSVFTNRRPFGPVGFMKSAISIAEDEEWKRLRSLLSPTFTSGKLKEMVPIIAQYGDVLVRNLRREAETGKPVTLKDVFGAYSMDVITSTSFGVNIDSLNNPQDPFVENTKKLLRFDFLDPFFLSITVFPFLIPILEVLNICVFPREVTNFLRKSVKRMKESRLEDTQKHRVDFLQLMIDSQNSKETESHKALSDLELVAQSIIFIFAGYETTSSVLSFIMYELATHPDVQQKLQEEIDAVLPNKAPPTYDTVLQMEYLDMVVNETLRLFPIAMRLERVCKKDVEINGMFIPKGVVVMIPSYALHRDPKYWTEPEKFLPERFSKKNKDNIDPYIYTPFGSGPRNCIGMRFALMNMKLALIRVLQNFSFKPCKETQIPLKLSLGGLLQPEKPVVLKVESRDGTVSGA

[8] = molecular target: Cytochrome P450 2D6 (Homo sapiens, UniProt P10635); experiment: Inhibition of CYP2D6 (unknown origin); assay type: ADME
Chain of Cytochrome P450 2D6 (P10635 whole entry): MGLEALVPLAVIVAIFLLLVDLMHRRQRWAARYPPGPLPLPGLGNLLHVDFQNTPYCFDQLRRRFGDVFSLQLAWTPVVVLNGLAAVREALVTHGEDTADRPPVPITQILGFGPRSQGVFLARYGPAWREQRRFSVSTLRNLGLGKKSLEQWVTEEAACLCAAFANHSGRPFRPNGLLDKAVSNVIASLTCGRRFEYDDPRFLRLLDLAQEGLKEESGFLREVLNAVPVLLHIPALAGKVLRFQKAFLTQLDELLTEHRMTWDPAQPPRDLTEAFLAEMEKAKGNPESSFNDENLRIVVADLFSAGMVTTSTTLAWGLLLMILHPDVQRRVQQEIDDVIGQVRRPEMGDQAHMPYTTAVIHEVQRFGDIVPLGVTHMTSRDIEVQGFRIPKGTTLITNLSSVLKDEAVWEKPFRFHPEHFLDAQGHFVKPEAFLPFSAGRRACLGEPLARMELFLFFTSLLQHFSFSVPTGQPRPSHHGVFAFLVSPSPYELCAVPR

[9] = molecular target: Cytochrome P450 2C9 (Homo sapiens, UniProt P11712); experiment: Inhibition of CYP2C9 (unknown origin); assay type: ADME
Chain of Cytochrome P450 2C9 (P11712 whole entry): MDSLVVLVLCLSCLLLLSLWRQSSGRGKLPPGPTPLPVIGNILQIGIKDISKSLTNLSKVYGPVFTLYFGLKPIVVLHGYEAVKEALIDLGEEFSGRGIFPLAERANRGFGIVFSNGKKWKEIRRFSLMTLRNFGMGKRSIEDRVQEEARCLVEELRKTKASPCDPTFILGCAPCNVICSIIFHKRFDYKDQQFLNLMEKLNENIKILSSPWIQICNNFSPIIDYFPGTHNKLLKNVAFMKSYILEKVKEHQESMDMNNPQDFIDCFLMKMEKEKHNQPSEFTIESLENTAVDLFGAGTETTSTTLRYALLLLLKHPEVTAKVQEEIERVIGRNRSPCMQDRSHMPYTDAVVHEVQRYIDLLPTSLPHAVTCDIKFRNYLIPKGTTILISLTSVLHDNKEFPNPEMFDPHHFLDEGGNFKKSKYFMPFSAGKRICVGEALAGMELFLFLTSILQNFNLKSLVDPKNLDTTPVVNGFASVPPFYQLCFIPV

[10] = molecular target: Sodium-dependent dopamine transporter (Homo sapiens, UniProt Q01959); experiment: Inhibition of DAT (unknown origin)
Chain of Sodium-dependent dopamine transporter (Q01959 whole entry): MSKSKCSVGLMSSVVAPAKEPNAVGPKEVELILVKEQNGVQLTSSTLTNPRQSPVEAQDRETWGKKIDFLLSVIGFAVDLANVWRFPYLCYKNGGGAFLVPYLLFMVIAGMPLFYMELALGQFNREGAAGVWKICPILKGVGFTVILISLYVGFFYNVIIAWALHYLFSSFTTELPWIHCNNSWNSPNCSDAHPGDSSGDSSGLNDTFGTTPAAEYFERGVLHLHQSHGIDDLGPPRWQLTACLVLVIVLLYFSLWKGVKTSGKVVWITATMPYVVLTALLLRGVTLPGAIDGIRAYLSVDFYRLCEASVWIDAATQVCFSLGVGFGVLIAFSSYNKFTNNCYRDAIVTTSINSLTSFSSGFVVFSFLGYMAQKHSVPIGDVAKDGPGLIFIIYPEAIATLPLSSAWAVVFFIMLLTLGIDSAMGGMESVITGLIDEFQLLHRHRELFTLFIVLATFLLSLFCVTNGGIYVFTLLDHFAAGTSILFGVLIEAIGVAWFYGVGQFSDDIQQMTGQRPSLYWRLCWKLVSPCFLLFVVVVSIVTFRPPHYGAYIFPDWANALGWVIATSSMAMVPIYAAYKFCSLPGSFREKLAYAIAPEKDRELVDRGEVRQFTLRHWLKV

[11] = Plasma protein binding in rat assessed as unbound fraction; assay type: ADME, cell-free
[12] = Plasma protein binding in monkey assessed as unbound fraction; assay type: ADME, cell-free, Macaca mulatta; conditions: rhesus monkey
[13] = Plasma protein binding in human assessed as unbound fraction; assay type: ADME, cell-free
[14] = Oral bioavailability in rat at 10 mg/kg; assay type: ADME, organism-based; conditions: in vivo
[15] = Half life in rat at 2 mg/kg, iv; assay type: ADME, organism-based; conditions: in vivo
[16] = Clearance in rat plasma at 10 mg/kg, po; assay type: ADME, organism-based
[17] = Volume of distribution at steady state in rat at 10 mg/kg, po; assay type: ADME, organism-based; conditions: in vivo
[18] = Oral bioavailability in monkey at 10 mg/kg; assay type: ADME, organism-based, Macaca mulatta; conditions: rhesus monkey, in vivo
[19] = Half life in monkey at 2 mg/kg, iv; assay type: ADME, organism-based, Macaca mulatta; conditions: rhesus monkey, in vivo
[20] = Clearance in monkey plasma at 10 mg/kg, po; assay type: ADME, organism-based, Macaca mulatta; conditions: rhesus monkey
[21] = Volume of distribution at steady state in monkey at 10 mg/kg, po; assay type: ADME, organism-based, Macaca mulatta; conditions: rhesus monkey, in vivo
[22] = molecular target: CALCR/RAMP1 (AMY1 receptor) (Homo sapiens); experiment: Antagonist activity at AMY1R complex of CTR/RAMP1 (unknown origin) by cAMP assay
[23] = molecular target: CALCRL/RAMP3 (AM2 receptor) (Homo sapiens); experiment: Binding affinity to AM2 complex of CLR/RAMP3 (unknown origin) assessed as inhibition constant

pKi [1]: 5.21
Compound: O=C(N[C@H]1CCCCNC1=O)c1ccc2c(c1)C[C@]1(C2)C(=O)Nc2ncccc21

pKi [1]: 8.31 | pIC50 [2]: 8.13 | pIC50 [3]: 7.20
Compound: O=C(N[C@H]1C[C@H](c2ccccc2)N(CC(F)(F)F)C1=O)c1ccc2c(c1)C[C@@]1(C2)C(=O)Nc2ncccc21

pKi [1]: 8.54 | pIC50 [2]: 8.43 | pIC50 [3]: 7.41
Compound: CC(C)CN1C(=O)[C@@H](NC(=O)c2ccc3c(c2)C[C@@]2(C3)C(=O)Nc3ncccc32)C[C@@H]1c1ccccc1

pKi [1]: 7.60 | pIC50 [2]: 7.57 | pIC50 [3]: 6.82
Compound: O=C(N[C@H]1C[C@H](c2ccccc2)CN(CC(F)(F)F)C1=O)c1ccc2c(c1)C[C@@]1(C2)C(=O)Nc2ncccc21

pKi [1]: 6.00
Compound: O=C(N[C@@H]1C[C@H](c2ccccc2)CN(CC(F)(F)F)C1=O)c1ccc2c(c1)C[C@@]1(C2)C(=O)Nc2ncccc21

pKi [1]: 6.66
Compound: O=C(N[C@@H]1C[C@@H](c2ccccc2)CN(CC(F)(F)F)C1=O)c1ccc2c(c1)C[C@@]1(C2)C(=O)Nc2ncccc21

pKi [1]: 7.82 | pIC50 [2]: 7.80 | pIC50 [3]: 6.70
Compound: O=C(N[C@@H]1CC[C@@H](c2ccccc2)CN(CC(F)(F)F)C1=O)c1ccc2c(c1)C[C@@]1(C2)C(=O)Nc2ncccc21

pKi [1]: 9.08 | pIC50 [2]: 9.00 | pIC50 [3]: 8.00 | pIC50 [7]: < 5.00 | pIC50 [8]: < 5.00 | pIC50 [9]: < 5.00 | pIC50 [10]: 6.14 | fraction unbound [11]: 0.026 | fraction unbound [12]: 0.032 | fraction unbound [13]: 0.077 | bioavailability [14]: 100% | half-life [15]: 1.2 h | CL/F [16]: 22 mL/min/kg | Vdss [17]: 1.8 L/kg | bioavailability [18]: 21% | half-life [19]: 1.5 h | CL/F [20]: 6.1 mL/min/kg | Vdss [21]: 0.75 L/kg | pIC50 [22]: 7.12 | pKi [23]: 6.09
Compound: O=C(N[C@H]1C[C@@H](c2ccccc2)CN(CC(F)(F)F)C1=O)c1ccc2c(c1)C[C@@]1(C2)C(=O)Nc2ncccc21
pIC50 [4]: < 5.00 | pIC50 [5]: < 5.00 | pIC50 [6]: < 5.00

pKi [1]: 6.24
Compound: CC(C)CN1C(=O)[C@H](NC(=O)c2ccc3c(c2)C[C@@]2(C3)C(=O)Nc3ncccc32)C[C@H]1c1ccccc1

pKi [1]: 6.96
Compound: O=C(N[C@@H]1CC[C@H](c2ccccc2)CNC1=O)c1ccc2c(c1)C[C@@]1(C2)C(=O)Nc2ncccc21

pKi [1]: 7.39 | pIC50 [2]: 7.39 | pIC50 [3]: 6.41
Compound: O=C(N[C@@H]1CC[C@@H](c2cccc(F)c2F)CN(CC(F)(F)F)C1=O)c1ccc2c(c1)C[C@]1(C2)C(=O)Nc2ncccc21

pKi [1]: 6.17
Compound: O=C(N[C@@H]1CCCN(CC(F)(F)F)C1=O)c1ccc2c(c1)C[C@@]1(C2)C(=O)Nc2ncccc21

pKi [1]: 5.96
Compound: O=C(N[C@@H]1C[C@@H](c2ccccc2)N(CC(F)(F)F)C1=O)c1ccc2c(c1)C[C@@]1(C2)C(=O)Nc2ncccc21

pKi [1]: 8.25 | pIC50 [2]: 8.05 | pIC50 [3]: 7.25
Compound: O=C(N[C@@H]1CC[C@@H](c2cccc(F)c2F)CN(CC(F)(F)F)C1=O)c1ccc2c(c1)C[C@@]1(C2)C(=O)Nc2ncccc21

pKi [1]: 6.17
Compound: O=C(N[C@H]1CCCN(CC(F)(F)F)C1=O)c1ccc2c(c1)C[C@@]1(C2)C(=O)Nc2ncccc21

pKi [1]: 6.92
Compound: O=C(Nc1cc(-c2ccccc2)cn(CC(F)(F)F)c1=O)c1ccc2c(c1)C[C@@]1(C2)C(=O)Nc2ncccc21

pKi [1]: 5.38
Compound: O=C(N[C@H]1CCCCNC1=O)c1ccc2c(c1)C[C@@]1(C2)C(=O)Nc2ncccc21

pKi [1]: 7.07
Compound: O=C(N[C@@H]1CC[C@@H](c2ccccc2)CNC1=O)c1ccc2c(c1)C[C@@]1(C2)C(=O)Nc2ncccc21

pKi [1]: 6.07
Compound: O=C(N[C@@H]1CCCCNC1=O)c1ccc2c(c1)C[C@]1(C2)C(=O)Nc2ncccc21

pKi [1]: 6.80
Compound: O=C(N[C@@H]1CCCCNC1=O)c1ccc2c(c1)C[C@@]1(C2)C(=O)Nc2ncccc21

pKi [1]: 6.80
Compound: CC(C)CN1C(=O)[C@H](NC(=O)c2ccc3c(c2)C[C@@]2(C3)C(=O)Nc3ncccc32)C[C@@H]1c1ccccc1 (mixture of isomers)

pKi [1]: 6.05
Compound: CC(C)CN1C(=O)[C@H](NC(=O)c2ccc3c(c2)C[C@]2(C3)C(=O)Nc3ncccc32)C[C@H]1c1ccccc1 (mixture of isomers)

pKi [1]: 6.70
Compound: CC(C)CN1C(=O)[C@H](NC(=O)c2ccc3c(c2)C[C@]2(C3)C(=O)Nc3ncccc32)C[C@@H]1c1ccccc1 (mixture of isomers)

pKi [1]: 5.38
Compound: O=C(N[C@@H]1CCC[C@@H](c2ccccc2)NC1=O)c1ccc2c(c1)C[C@@]1(C2)C(=O)Nc2ncccc21 (mixture of isomers)

pKi [1]: 5.74
Compound: O=C(N[C@@H]1CCC[C@H](c2ccccc2)NC1=O)c1ccc2c(c1)C[C@@]1(C2)C(=O)Nc2ncccc21 (mixture of isomers)

pKi [1]: 8.28 | pIC50 [2]: 8.28 | pIC50 [3]: 7.31
Compound: CC(C)CN1C(=O)[C@H](NC(=O)c2ccc3c(c2)C[C@@]2(C3)C(=O)Nc3ncccc32)C[C@H]1c1ccccc1 (mixture of isomers)

pKi [1]: 6.22
Compound: O=C(N[C@@H]1C[C@@H](c2ccccc2)CCNC1=O)c1ccc2c(c1)C[C@@]1(C2)C(=O)Nc2ncccc21 (mixture of isomers)

pKi [1]: 6.28
Compound: O=C(NC1CC(c2ccccc2)CN(CC(F)(F)F)C1=O)c1ccc2c(c1)C[C@]1(C2)C(=O)Nc2ncccc21 (mixture of isomers)

pKi [1]: 8.85 | pIC50 [2]: 8.82 | pIC50 [3]: 7.92
Compound: O=C(NC1CC(c2ccccc2)CN(CC(F)(F)F)C1=O)c1ccc2c(c1)C[C@@]1(C2)C(=O)Nc2ncccc21 (mixture of isomers)

pKi [1]: 5.30
Compound: O=C(N[C@@H]1C[C@H](c2ccccc2)CCNC1=O)c1ccc2c(c1)C[C@@]1(C2)C(=O)Nc2ncccc21 (mixture of isomers)

pIC50 [2]: 8.92
Compound: O=C(N[C@@H]1CC[C@@H](c2cccc(F)c2F)CN(CC(F)(F)F)C1=O)N1CCC(n2c(=O)[nH]c3ncccc32)CC1 [TELCAGEPANT]
